Data: patent US10316050B2, “PT (IV) complexes containing 4,4′-disubstituted-2,2′-bipyridyl and their use in cancer therapy” (THE BOARD OF REGENTS OF THE NEVADA SYSTEM OF HIGHER …, priority 2014, dated 2019)
Like-named read-outs stand apart in the source and are kept apart here.

Assays:
[1] = Solubility in DMSO and common organic solvents; assay type: physicochemical
Protocol: Coordination of the axial ligands to the Pt center improved the solubility of the complexes in common organic solvents. DMSO solutions of the Pt(IV) complexes with concentrations of 10 mM or higher were obtainable, whereas the Pt(II) can only be made at the highest concentration of 5 mM.

[2] = test system: T-47D breast cancer cells; assay: MTS cell viability assay, T-47D; assay type: cell-based, human
Protocol: (§1) Human breast (HCC38, MCF-7, MDA-MB-231, SK-BR-3, T-47D, and ZR-75-1), lung (A549 and H520), and prostate (DU145 and PC-3) cancer cell lines were obtained from American Culture Type Collection (ATCC). The HCC38, MCF-7, MDA-MB-231, SK-BR-3, T-47D, ZR-75-1, and A549 cells were grown in MEM supplemented with 10% FBS, 25 mM HEPES buffer (pH 7.4), penicillin (100 U/mL), and streptomycin (100 μg/mL). The H520, DU145, and PC-3 cell lines were grown in RPMI-1640 supplemented with 10% FBS, 25 mM HEPES buffer (pH 7.4), penicillin (100 U/mL), and streptomycin (100 μg/mL). All cell lines were maintained at 37° C. in a humidified, 5% CO2 atmosphere.
(§2) Cells were cultured at a density of 2-3.5×10^3 cells per well in flat bottomed 96-well plates in 100 μL of complete growth medium and incubated for 2 days to reach ˜50% confluence. The cells were then treated with solvent or the appropriate drugs (CDDP stock was dissolved in 0.15 M NaCl, carboplatin stock was dissolved in 5% glucose, synthesized Pt(IV) complexes were dissolved in DMSO) for 1 hour, washed three times with 100 μL PBS, and incubated in 100 μL of fresh medium. After 2 days, the medium was replaced with 120 μL of medium containing CellTiter 96® Aqueous One Solution Reagent (MTS reagent) (Promega, Madison, Wis.). The cells were incubated at 37° C. for 4 hours and the cell viability was determined by measuring the absorbance at 490 nm using a Tecan Infinite M1000 microplate reader. The 48 h treatment was done in a similar manner, except the cells were not washed after treatment and the MTS reagent was immediately added. Viability of treated groups was calculated as a percent of control and graphed with GraphPad Prism.
(§3) The anti-proliferative activities of Pt(IV) complexes were determined in two lung (A549 and H520), two prostate (DU145 and PC-3), and six breast (HCC38, MCF-7, MDA-MB-231, SK-BR-3, T-47D, and ZR-75-1) cancer cell lines. The cells were treated with increasing concentrations of cisplatin (CDDP), carboplatin, or the Pt(IV) complexes for 1 or 48 hours, and the viability was measured using an MTS colorimetric cell proliferation assay. Graphs of the results are shown for DU145 (FIG. 8A), PC-3 (FIG. 8B), SK-BR-3 (FIG. 8C), ZR-75-1 (FIG. 8D), A549 (FIG. 8E), and MCF-7 (FIG. 8F).

H520 lung cancer cells = assay: MTS cell viability assay, H520; assay type: cell-based, human; details: read-out: EC50 (effective concentration that resulted in 50% cell viability)
Protocol: as §1, §2, §3

[3] = test system: MCF-7 breast cancer cells; assay: MTS cell viability assay, MCF-7; assay type: cell-based, human; details: read-out: EC50 (effective concentration that resulted in 50% cell viability)
Protocol: as §1, §2, §3

[4] = test system: PC-3 prostate cancer cells; assay: MTS cell viability assay, PC-3; assay type: cell-based, human; details: read-out: EC50 (effective concentration that resulted in 50% cell viability)
Protocol: as §1, §2, §3
(§4) The anti-proliferative activities of certain Pt(II) complexes were determined in DU145, PC-3, and SK-BR-3 cells. The cells were treated with increasing concentrations of cisplatin (CDDP) or the Pt(II) complexes for 1 or 48 hours, and the viability was measured using an MTS colorimetric cell proliferation assay.

A549 lung cancer cells = assay: MTS cell viability assay, A549; assay type: cell-based, human; details: read-out: EC50 (effective concentration that resulted in 50% cell viability)
Protocol: as §1, §2, §3

[5] = test system: HCC38 breast cancer cells; assay: MTS cell viability assay, HCC38; assay type: cell-based, human; details: read-out: EC50 (effective concentration that resulted in 50% cell viability)
Protocol: as §1, §2, §3

[6] = test system: ZR-75-1 breast cancer cells; assay: MTS cell viability assay, ZR-75-1; assay type: cell-based, human; details: read-out: EC50 (effective concentration that resulted in 50% cell viability)
Protocol: as §1, §2, §3

[7] = Stability of stock solution in DMSO or ethanol; assay type: physicochemical; details: stock solution made in DMSO or ethanol
Protocol: (§5) It should be noted that while the solubility of the Pt(IV) complexes in organic solvents were increased compared to their Pt(II) precursors, they were still poorly soluble in water. Thus, Pt(IV)-1C to Pt(IV)-3C were limited to a highest concentration of 100 μM. […] Testing of Pt(IV)4C therefore was limited to 25 μM.

[8] = test system: MDA-MB-231 breast cancer cells; assay: MTS cell viability assay, MDA-MB-231; assay type: cell-based, human; details: read-out: EC50 (effective concentration that resulted in 50% cell viability)
Protocol: as §1, §2, §3

[9] = test system: SK-BR-3 breast cancer cells; assay: MTS cell viability assay, SK-BR-3; assay type: cell-based, human; details: read-out: EC50 (effective concentration that resulted in 50% cell viability)
Protocol: as §1, §2, §3, §4

[10] = test system: DU145 prostate cancer cells; assay type: cell-based, human; details: read-out: EC50 (effective concentration that resulted in 50% cell viability)
Protocol: as §1, §2, §3, §4

[11] = Maximum tolerated dose study in a mouse model; assay type: in vivo; details: intraperitoneal administration, 12.5 mg/kg/day for three days
Protocol: As described herein, the platinum complexes provided herein can be used to reduce the viability of cancer cells. […] One of these compounds, Pt(II)-4C, was tested in vivo in a mouse model to determine the maximum tolerated dose. […] Here, a series of Pt(IV) derivatives having improved solubility in DMSO and, in some instances, increased activity compared to their Pt(II) counterparts is described.

[12] = Solubility in water and culture medium; assay type: physicochemical; details: water
Protocol: as §5

[13] = 1 h treatment, Table 3, read-out: EC50 (effective concentration that resulted in 50% cell viability)
[14] = 48 h, Table 5, read-out: EC50 (effective concentration that resulted in 50% cell viability)
[15] = ZR-75-1, 1 h treatment, Table 3
[16] = MDA-MB-231, 1 h treatment, Table 3
[17] = SK-BR-3, 1 h treatment, Table 3

CCCCCCCCOc1ccnc(-c2cc(OCCCCCCCC)ccn2)c1.[Cl][Pt][Cl] [Pt(II)-8C]
solubility in DMSO and other common organic solvents (in words) [1]: poor solubility in DMSO

[Pt(IV)Cl2(OAc)2(4,4′-dioctyloxy-2,2′-bipyridine)] [Pt(IV)-8C]
EC50 [2, 13]: 1500 ± 500 nM | EC50 [2, 14]: 250 nM | EC50 (H520 lung cancer cells; H520, 1 h treatment, Table 3): 7000 ± 5000 nM | EC50 (H520 lung cancer cells; H520, 48 h, Table 5): 1200 ± 600 nM | EC50 ([3]; MCF-7, 1 h treatment, Table 3): 4000 ± 1000 nM | EC50 ([3]; MCF-7, 48 h, Table 5): 1300 ± 300 nM | EC50 ([4]; PC-3, 1 h treatment, Table 3): 1200 ± 500 nM | EC50 ([4]; PC-3, 48 h, Table 5): 110 ± 20 nM | EC50 (A549 lung cancer cells; A549, 1 h treatment, Table 3): 7000 ± 400 nM | EC50 (A549 lung cancer cells; A549, 48 h, Table 5): 3000 ± 500 nM | EC50 ([5]; HCC38, 1 h treatment, Table 3): 3000 ± 600 nM | EC50 ([5]; HCC38, 48 h, Table 5): 1600 ± 300 nM | EC50 [6, 15]: 3000 ± 1000 nM | EC50 ([6]; ZR-75-1, 48 h, Table 5): 1300 ± 100 nM | stability of the structure in stock solution [7]: structure is stable | EC50 [8, 16]: 2100 ± 200 nM | EC50 ([8]; MDA-MB-231, 48 h, Table 5): 900 ± 300 nM | EC50 [9, 17]: 330 ± 50 nM | EC50 ([9]; SK-BR-3, 48 h, Table 5): 220 ± 30 nM | EC50 ([10]; DU145, 1 h treatment, Table 3): 700 ± 300 nM | EC50 ([10]; DU145, 48 h, Table 5): 200 ± 100 nM

CCCCOc1ccnc(-c2cc(OCCCC)ccn2)c1.[Cl][Pt][Cl] [Pt(II)-4C]
EC50 ([2]; 1 h treatment, Table 2, read-out: EC50 (effective concentration that resulted in 50% cell viability)): 12000 ± 7000 nM | EC50 ([2]; 48 h treatment, Table 4, read-out: EC50 (effective concentration that resulted in 50% cell viability)): 2300 ± 400 nM | EC50 (H520 lung cancer cells; H520, 1 h treatment, Table 2): 20000 ± 1000 nM | EC50 (H520 lung cancer cells; H520, 48 h treatment, Table 4): 14000 ± 6000 nM | EC50 ([3]; MCF-7, 1 h treatment, Table 2): 22000 ± 2000 nM | EC50 ([3]; MCF-7, 48 h treatment, Table 4): 13000 ± 1000 nM | EC50 ([4]; PC-3, 1 h treatment, Table 2): 11000 ± 2000 nM | EC50 ([4]; PC-3, 48 h treatment, Table 4): 7400 ± 500 nM | EC50 (A549 lung cancer cells; A549, 1 h treatment, Table 2): 17000 ± 1000 nM | EC50 (A549 lung cancer cells; A549, 48 h treatment, Table 4): 15400 ± 500 nM | EC50 ([5]; HCC38, 1 h treatment, Table 2): 12000 ± 6000 nM | EC50 ([5]; HCC38, 48 h treatment, Table 4): 7300 ± 3000 nM | EC50 ([6]; ZR-75-1, 1 h treatment, Table 2): 21000 ± 2000 nM | EC50 ([6]; ZR-75-1, 48 h treatment, Table 4): 6000 ± 900 nM | survival of the animals [11]: survived for seven days | EC50 ([8]; MDA-MB-231, 1 h treatment, Table 2): 4000 ± 3000 nM | EC50 ([8]; MDA-MB-231, 48 h treatment, Table 4): 2400 ± 600 nM | EC50 ([9]; SK-BR-3, 1 h treatment, Table 2): 5000 ± 4000 nM | EC50 ([9]; SK-BR-3, 48 h treatment, Table 4): 2100 ± 200 nM | EC50 ([10]; DU145, 1 h treatment, Table 2): 12000 ± 8000 nM | EC50 ([10]; DU145, 48 h treatment, Table 4): 5000 ± 2000 nM | solubility in DMSO and other common organic solvents (in words) [1]: only moderate solubility in common organic solvents | solubility in water (in words) [12]: poor solubility in water

[Pt(IV)Cl2(OAc)2(4,4′-dihexyloxy-2,2′-bipyridine)] [Pt(IV)-6C]
EC50 [2, 13]: 2100 ± 400 nM | EC50 [2, 14]: 240 ± 10 nM | EC50 (H520 lung cancer cells; H520, 1 h treatment, Table 3): 2100 ± 200 nM | EC50 (H520 lung cancer cells; H520, 48 h, Table 5): 1000 ± 400 nM | EC50 ([3]; MCF-7, 1 h treatment, Table 3): 2400 ± 100 nM | EC50 ([3]; MCF-7, 48 h, Table 5): 1600 ± 200 nM | EC50 ([4]; PC-3, 1 h treatment, Table 3): 2000 ± 300 nM | EC50 ([4]; PC-3, 48 h, Table 5): 330 ± 40 nM | EC50 (A549 lung cancer cells; A549, 1 h treatment, Table 3): 2500 ± 200 nM | EC50 (A549 lung cancer cells; A549, 48 h, Table 5): 2200 ± 100 nM | EC50 ([5]; HCC38, 1 h treatment, Table 3): 2300 ± 200 nM | EC50 ([5]; HCC38, 48 h, Table 5): 1800 ± 500 nM | EC50 [6, 15]: 1100 ± 400 nM | EC50 ([6]; ZR-75-1, 48 h, Table 5): 550 ± 40 nM | EC50 [8, 16]: 1100 ± 200 nM | EC50 ([8]; MDA-MB-231, 48 h, Table 5): 310 ± 40 nM | EC50 [9, 17]: 360 ± 20 nM | EC50 ([9]; SK-BR-3, 48 h, Table 5): 210 ± 30 nM | EC50 ([10]; DU145, 1 h treatment, Table 3): 1300 ± 200 nM | EC50 ([10]; DU145, 48 h, Table 5): 500 ± 300 nM
